According to PubChem BioAssay AID330 (DTP/NCI, 2004):
Several values for one entry are separate records, joined by “and”; a condition that tells them apart may be missing. Equal entries are not always repeated. Toxic doses and inconclusive results are not listed. Rule for the calls: active = survival T/C of 150% or more; inactive = T/C below 125% in these data. Square brackets hold non-standard residues; d marks the D form. Peptide text beside a SMILES is read from it. * marks the point of attachment. Nle = CCCC[CH](N)C(=O)O; Cbz = O=C(OCc1ccccc1)*

Test system: P388 leukemia ip, CD2F1 mice, survival T/C
Assay: NCI In Vivo Anticancer Drug Screen. Data for tumor model P388 Leukemia (intraperitoneal) in CD2F1 (CDF1) mice
Conditions: endpoint: median survival time, higher = longer survival
Outline: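 Mice carrying the transplanted tumor received test compound or vehicle. Survival was recorded in each group, and the value is the treated-group measurement divided by that of the vehicle-treated control group.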

[1] = dose: 100.0 mg/kg/injection, schedule: Q04DX003 (ip), vehicle: Klucel (hydroxypropylcellulose) (HPC)
[2] = dose: 200.0 mg/kg/injection, schedule: Q04DX003 (ip), vehicle: Klucel (hydroxypropylcellulose) (HPC)
[3] = dose: 50.0 mg/kg/injection, schedule: Q01DX009 (ip), vehicle: saline with Tween-80
[4] = dose: 100.0 mg/kg/injection, schedule: Q01DX009 (ip), vehicle: saline with Tween-80
[5] = dose: 200.0 mg/kg/injection, schedule: Q01DX009 (ip), vehicle: saline with Tween-80
[6] = dose: 50.0 mg/kg/injection, schedule: Q01DX005 (ip), vehicle: Klucel (hydroxypropylcellulose) (HPC)
[7] = dose: 100.0 mg/kg/injection, schedule: Q01DX005 (ip), vehicle: Klucel (hydroxypropylcellulose) (HPC)
[8] = dose: 200.0 mg/kg/injection, schedule: Q01DX005 (ip), vehicle: Klucel (hydroxypropylcellulose) (HPC)
[9] = dose: 50.0 mg/kg/injection, schedule: Q01DX005 (ip), vehicle: saline
[10] = dose: 100.0 mg/kg/injection, schedule: Q01DX005 (ip), vehicle: saline
[11] = dose: 200.0 mg/kg/injection, schedule: Q01DX005 (ip), vehicle: saline
[12] = dose: 100.0 mg/kg/injection, schedule: Q04DX003 (ip), vehicle: saline with Tween-80
[13] = dose: 200.0 mg/kg/injection, schedule: Q04DX003 (ip), vehicle: saline with Tween-80
[14] = dose: 50.0 mg/kg/injection, schedule: Q01DX009 (ip), vehicle: Klucel (hydroxypropylcellulose) (HPC)
[15] = dose: 100.0 mg/kg/injection, schedule: Q01DX009 (ip), vehicle: Klucel (hydroxypropylcellulose) (HPC)
[16] = dose: 200.0 mg/kg/injection, schedule: Q01DX009 (ip), vehicle: Klucel (hydroxypropylcellulose) (HPC)
[17] = dose: 50.0 mg/kg/injection, schedule: Q01DX005 (ip), vehicle: saline with Tween-80
[18] = dose: 100.0 mg/kg/injection, schedule: Q01DX005 (ip), vehicle: saline with Tween-80
[19] = dose: 200.0 mg/kg/injection, schedule: Q01DX005 (ip), vehicle: saline with Tween-80
[20] = dose: 50.0 mg/kg/injection, schedule: Q01DX009 (ip), vehicle: saline
[21] = dose: 100.0 mg/kg/injection, schedule: Q01DX009 (ip), vehicle: saline

Measured: T/C

COC1OC2COC(c3ccccc3)OC2C(O)[CH]1[Hg][O]C(C)=O (stereo not drawn)
inactive: dose: 0.1 mg/kg/injection, schedule: Q01DX009 (ip), vehicle: distilled water + Tween-80 100 % of control | dose: 0.19 mg/kg/injection, schedule: Q01DX009 (ip), vehicle: distilled water + Tween-80 96 % of control | dose: 0.38 mg/kg/injection, schedule: Q01DX009 (ip), vehicle: distilled water + Tween-80 107 % of control | dose: 0.78 mg/kg/injection, schedule: Q01DX009 (ip), vehicle: distilled water + Tween-80 99 % of control | dose: 1.56 mg/kg/injection, schedule: Q01DX009 (ip), vehicle: distilled water + Tween-80 91 % of control | dose: 3.13 mg/kg/injection, schedule: Q01DX009 (ip), vehicle: distilled water + Tween-80 104 % of control | dose: 6.25 mg/kg/injection, schedule: Q01DX009 (ip), vehicle: distilled water + Tween-80 96 % of control | dose: 12.5 mg/kg/injection, schedule: Q01DX009 (ip), vehicle: distilled water + Tween-80 110 % of control

O=C1c2ccccc2C(=O)N1C(=NCc1ccccc1)c1ccccc1
inactive: [1] 104 % of control | [2] 104 % of control | dose: 400.0 mg/kg/injection, schedule: Q04DX003 (ip), vehicle: Klucel (hydroxypropylcellulose) (HPC) 109 % of control

Clc1ccc2c(nnn2OC2CCCC2)c1Cl
inactive: [3] 88 % of control | [4] 94 % of control | [5] 94 % of control

CCOC(=O)C1=C(C)NC(=O)NC1c1cc(OC)c(OC)c(OC)c1 (stereo not drawn)
inactive: [6] 98 % of control | [7] 96 % of control | [8] 94 % of control

CCc1[nH]c2ccc(C)cc2c1C(=O)c1cccnc1
inactive: dose: 50.0 mg/kg/injection, schedule: Q04DX003 (ip), vehicle: Klucel (hydroxypropylcellulose) (HPC) 94 % of control | [1] 103 % of control | [2] 98 % of control

CC(=O)OCC1OC(n2cccc(OC(C)=O)c2=O)C(OC(C)=O)C1OC(C)=O (stereo not drawn)
inactive: [9] 103 % of control | dose: 50.0 mg/kg/injection, schedule: Q01DX005 (ip), vehicle: suspension in saline 99 % of control | [10] 99 % of control | dose: 100.0 mg/kg/injection, schedule: Q01DX005 (ip), vehicle: suspension in saline 99 % of control | [11] 102 % of control | dose: 200.0 mg/kg/injection, schedule: Q01DX005 (ip), vehicle: suspension in saline 113 % of control | dose: 400.0 mg/kg/injection, schedule: Q01DX005 (ip), vehicle: saline 98 % of control | dose: 400.0 mg/kg/injection, schedule: Q01DX005 (ip), vehicle: suspension in saline 96 % of control

C=C(C)c1c2ccccc2cc2cccc(Sc3ccccc3)c12
inactive: [12] 90 % of control | [13] 90 % of control | dose: 400.0 mg/kg/injection, schedule: Q04DX003 (ip), vehicle: saline with Tween-80 90 % of control

O=C(O)C1(NO)CCCCC1
inactive: dose: 25.0 mg/kg/injection, schedule: Q01DX009 (ip), vehicle: Klucel (hydroxypropylcellulose) (HPC) 105 % of control | [14] 107 % of control and 110 % of control and 115 % of control | [3] 107 % of control and 119 % of control | [15] 105 % of control and 108 % of control and 119 % of control | [4] 120 % of control and 123 % of control | [16] 111 % of control and 87 % of control | [5] 99 % of control and 119 % of control | dose: 400.0 mg/kg/injection, schedule: Q01DX009 (ip), vehicle: Klucel (hydroxypropylcellulose) (HPC) 110 % of control and 96 % of control | dose: 600.0 mg/kg/injection, schedule: Q01DX009 (ip), vehicle: Klucel (hydroxypropylcellulose) (HPC) 101 % of control and 98 % of control

CSC(=S)n1nc(-c2ccccc2)c(N=Nc2ccc(C)cc2)c1-c1ccccc1
inactive: [17] 98 % of control | [18] 91 % of control | [19] 93 % of control

COc1ccc2c(c1)OCCN(C)C2c1ccccc1 (stereo not drawn)
inactive: [17] 97 % of control | [18] 99 % of control | [19] 99 % of control

CC(C)OC(=O)Nc1nc2ccc(C(=O)OC(C)C)cc2[nH]1
inactive: dose: 50.0 mg/kg/injection, schedule: Q04DX003 (ip), vehicle: saline with Tween-80 102 % of control | [12] 104 % of control and 116 % of control | [13] 112 % of control and 113 % of control

COc1ccc2cc1Oc1ccc(cc1)C[C@H]1c3cc(c(OC)cc3CCN1C)Oc1c(O)c(OC)cc3c1[C@H](C2)N(C)CC3
inactive: dose: 25.0 mg/kg/injection, schedule: Q01DX009 (ip), vehicle: saline 106 % of control | [20] 100 % of control | dose: 50.0 mg/kg/injection, schedule: Q01DX009 (ip), vehicle: suspension in saline 103 % of control | [21] 103 % of control | dose: 100.0 mg/kg/injection, schedule: Q01DX009 (ip), vehicle: suspension in saline 102 % of control

COc1ccc(C(Cc2ccccc2)C2(O)C(=O)NC(=O)NC2=O)cc1 (stereo not drawn)
inactive: dose: 60.0 mg/kg/injection, schedule: Q01DX005 (ip), vehicle: saline with Tween-80 103 % of control | dose: 120.0 mg/kg/injection, schedule: Q01DX005 (ip), vehicle: saline with Tween-80 99 % of control | dose: 240.0 mg/kg/injection, schedule: Q01DX005 (ip), vehicle: saline with Tween-80 98 % of control

CCCCC(NC(=O)OCc1ccccc1)C(=O)NC(CCSC)C(=O)O (stereo not drawn) (Cbz-[Nle]-Met-OH; configuration not given here)
inactive: [6] 96 % of control | [7] 111 % of control | [8] 101 % of control

O=C(O)CCS(=O)(=O)CCC(=O)O
inactive: [12] 100 % of control | [13] 104 % of control

CC(C)(C)N(O)c1ccc(P(=O)(c2ccccc2)c2ccccc2)cc1
inactive: [3] 99 % of control | [4] 99 % of control | [5] 99 % of control

CCOc1c(N=Nc2cccc([N+](=O)[O-])c2)c(C)nn1C(N)=S
inactive: dose: 15.0 mg/kg/injection, schedule: Q01DX005 (ip), vehicle: Klucel + Tween-80 92 % of control | dose: 30.0 mg/kg/injection, schedule: Q01DX005 (ip), vehicle: Klucel + Tween-80 94 % of control

CC(C)(C)c1cc(C#C[Si](C)(C)C)cc(C(C)(C)C)c1
inactive: dose: 6.25 mg/kg/injection, schedule: Q01DX005 (ip), vehicle: Klucel (hydroxypropylcellulose) (HPC) 98 % of control | dose: 12.5 mg/kg/injection, schedule: Q01DX005 (ip), vehicle: Klucel (hydroxypropylcellulose) (HPC) 101 % of control | dose: 25.0 mg/kg/injection, schedule: Q01DX005 (ip), vehicle: Klucel (hydroxypropylcellulose) (HPC) 92 % of control

CC12NC(=O)NC1(C)NC(=O)N2 (stereo not drawn)
inactive: [20] 107 % of control | [21] 87 % of control | dose: 100.0 mg/kg/injection, schedule: Q04DX003 (ip), vehicle: saline 103 % of control | dose: 200.0 mg/kg/injection, schedule: Q04DX003 (ip), vehicle: saline 97 % of control

Oc1ccccc1/C=N/C(/N=C/c1ccccc1O)c1ccccc1O
inactive: [3] 100 % of control | [4] 101 % of control | [5] 100 % of control

COC(=O)C(CCSC)NC(=O)C(Cc1c[nH]c2ccccc12)NC(=O)OC(C)(C)C (stereo not drawn)
inactive: [14] 86 % of control | [15] 97 % of control | [16] 106 % of control

S=c1ncn(C2CCCC2)c(=S)[nH]1
inactive: [6] 93 % of control | [7] 103 % of control | [8] 100 % of control

O=C(O)COc1ccc2ccccc2c1
inactive: [4] 90 % of control | [12] 100 % of control | [5] 100 % of control | [13] 110 % of control

CCCCCCCCCCCCCCCCCCOC(=O)C(N)Cc1ccc(O)cc1 (stereo not drawn)
inactive: dose: 60.0 mg/kg/injection, schedule: Q01DX005 (ip), vehicle: Klucel (hydroxypropylcellulose) (HPC) 106 % of control | dose: 120.0 mg/kg/injection, schedule: Q01DX005 (ip), vehicle: Klucel (hydroxypropylcellulose) (HPC) 101 % of control | dose: 240.0 mg/kg/injection, schedule: Q01DX005 (ip), vehicle: Klucel (hydroxypropylcellulose) (HPC) 105 % of control

O=c1cc(F)cc[nH]1
inactive: [9] 103 % of control | [10] 104 % of control | [11] 109 % of control
